Assay: in vitro
Settings: human, hela cells, % viability

Structure (SMILES) | viability at 28.5 h, 10 µM
Cn1ccnc1C1(O)CCN(C(=O)Nc2cccc(F)c2)CC1 [CBK282279] | 109%
CCn1nc(C)c(CN(C)C(=O)C2CC=CCC2C(=O)O)c1C (centres unmarked) [CBK286884] | 86.1%
O=C(Nc1ccc(Cl)cc1Cl)NC(Cc1ccc(O)cc1)C(=O)O (centres unmarked) [CBK267386] | 90.9%
CC(C)n1cc(C(=O)N2CCCC(c3cc4ncccc4[nH]3)C2)cn1 (centres unmarked) [CBK283419] | 88.2%
CCOC(=O)C1CCN(S(=O)(=O)c2ccc(OC)c(C)c2C)CC1 [CBK268955] | 96.1%
O=C(Nc1cccc2ccccc12)C1CCCN1S(=O)(=O)c1ccc(Cl)cc1 (centres unmarked) [CBK138930] | 92.9%
O=S(=O)(Nc1ccc2cc(Br)cnc2n1)c1cccc2nsnc12 [CBK073894] | 82.8%
O=C(Cc1ccccc1)N/N=C/c1cccc2cccnc12 [CBK262778] | 85.7%
O=C(CN1C(=O)c2ccncc2C1=O)Nc1ccccn1 [CBK288624] | 89.9%
Cc1nc(=O)c(-c2ccccc2)c(C)n1-c1cccc(C(=O)O)c1 [CBK286965] | 94.3%
CCc1ccc(CNC(=O)c2ccc3c(c2)NC(=O)C(N2CCOCC2)S3)cc1 (centres unmarked) [CBK071737] | 93.2%
CC1(C)C(N(O)C(=O)Nc2cccc3ccccc23)N(c2cccc3ccccc23)C(=O)N1CC(=O)NN (centres unmarked) [CBK261004] | 88.2%
O=C(NC[C@H]1CC[C@H](c2nnc(-c3ccsc3)o2)CC1)C1CCC1 [CBK283363] | 87.1%
Nc1nnc(Sc2ccc([N+](=O)[O-])c3nonc23)s1 [CBK266712] | 82.3%
CN(C)CCCn1c(=O)[nH]c2sc3c(c2c1=N)CC(C)(C)OC3 [CBK269103] | 107%
O=C(O)C1CCC(CNC(=O)C2Cc3ccccc3CN2)CC1 (centres unmarked) [CBK286745] | 84.6%
Cc1cccc(CN(CC(=O)Nc2ccc3c(c2)OCCO3)S(=O)(=O)c2ccc(Cl)cc2)c1 [CBK264910] | 91.9%
C[C@H](c1ccccc1)N1C(=O)[C@@H]2CN(C(=O)CC(C)(C)CC(=O)O)CCN2C1=O [CBK289639] | 114%
COc1cccc(C2C(C(=O)c3ccc(Br)cc3)=C(O)C(=O)N2CCCN(C)C)c1 (centres unmarked) [CBK264921] | 84.5%
CN(C)S(=O)(=O)c1ccc2[nH]cc(CCN)c2c1 [CBK268522C] | 99.7%
CN1CCC(N(C)C(=O)NCc2ccc(Cl)c(Cl)c2)C1 (centres unmarked) [CBK155996] | 92.4%

Structure (SMILES) | viability at 28.5 h, 10 µM
COC(=O)CCc1ccc(S(=O)(=O)N2CCCN(Cc3c[nH]c4ccc(OC)cc34)CC2)cc1 [CBK062985] | 98.1%
Cc1cc(-c2cnc(N)nc2)cc(C2CCCN(C(=O)COc3c(C)cccc3C)C2)n1 (centres unmarked) [CBK285933] | 103%
COC(=O)c1ccc(Oc2nc(OC)cc(OC)n2)cc1 [CBK092221] | 113%
COCc1nnc(Sc2nccnc2N2CCCC2)s1 [CBK093736] | 95.4%
O=C(CCC(=O)Nc1ccccc1)N/N=C/c1ccco1 [CBK261968] | 108%
Cc1ccc2nsnc2c1NC(=O)CSc1nccn1C [CBK269411] | 104%
Nc1ccc(-c2ccc3c(c2)OCCCO3)c2ccccc12 [CBK084325] | 87.9%
Cc1cc(CNC(=O)COc2cc(Cl)ccc2Cl)c2ccccc2n1 [CBK269788] | 89.1%
CC(=O)N1CCN(CCNc2ncnc3sc4c(c23)CCC(C)C4)CC1 (centres unmarked) [CBK304897] | 93%
Cc1nn(C)c(S(=O)(=O)N2CCOCC2c2cccc(F)c2)c1C(F)F (centres unmarked) [CBK304729] | 86.3%
COc1ccc(-n2c(SCC(=O)c3ccccc3)nc(O)c(Cc3ccccc3)c2=O)cc1 [CBK263398] | 97.7%
O=C(O)c1cc(NC(=O)c2cccc(F)c2)cc(NC(=O)c2cccc(F)c2)c1 [CBK262800] | 90.6%
Cc1nc(-c2ccccc2)sc1C(=O)C1=C(O)C(=O)N(CCN(C)C)C1c1ccccc1 (centres unmarked) [CBK266415] | 100%
CN1CCN(c2ccc(NC(=O)c3cc([N+](=O)[O-])ccc3N3CCOCC3)cc2)CC1 [CBK269425] | 95.6%
NC1=C(N)OC(Oc2ccccc2C(F)(F)F)=NN1 [CBK018424] | 57.2%
C(=C\c1ccccc1)/CN1CCC(Cc2ccccc2)CC1 [CBK126384] | 119%
CN1C(=O)/C(=C2\SC(=S)N(C(CC(=O)O)C(=O)O)C2=O)c2ccccc21 (centres unmarked) [CBK261012] | 107%
CC(NC(=O)CCc1cn(C)c2ccccc12)c1ccccn1 (centres unmarked) [CBK281889] | 93.1%
FC(F)(F)c1ccc(CN2CCCN(c3nccc(OCc4ccc(Cl)c(Cl)c4)n3)CC2)cc1 [CBK083949] | 94.5%
NC(=O)C1(Cc2ccccc2-c2ccccc2)CCN(C(=O)Cc2ccccc2)CC1 [CBK285909] | 95.9%
Cc1nnc2nc(-c3ccc(Cl)cc3Cl)[nH]n12 [CBK027731] | 88.1%

Structure (SMILES) | viability at 28.5 h, 10 µM
CC(Nc1cc(N2CCN(CCO)CC2)ccc1[N+](=O)[O-])c1ccccc1 (centres unmarked) [CBK033838] | 106%
CC(=O)N1CCCC(c2[nH]c3cccnc3c2CN(C)C)C1 (centres unmarked) [CBK283469] | 89.1%
CC(C)(C)CC(=O)O/N=C(\N)c1ccccn1 [CBK265779] | 105%
Cc1ccc(Cl)cc1N=C(N)N=C(N)N [CBK268049] | 98.8%
O=C(CNC(=O)C1CC=CCC1C(=O)O)Nc1ccc(N2CCCCCC2)cc1 (centres unmarked) [CBK295603] | 90.8%
COc1ccc(C(=O)O)cc1NC(=S)NC(=O)c1ccc(-c2cc(Cl)ccc2Cl)o1 [CBK265074] | 104%
O=C1C2C(c3ccccc3Cl)OC3(C(=O)c4ccccc4C3=O)C2C(=O)N1c1ccc([N+](=O)[O-])cc1 (centres unmarked) [CBK262425] | 101%
Cc1ccc(CSCCNS(=O)(=O)c2ccsc2C(=O)O)cc1 [CBK296727] | 92.6%
CC(=O)N1CCCc2cc(C(O)CN3CCC(O)(c4ccc(F)cc4)CC3)ccc21 (centres unmarked) [CBK286481] | 88.1%
C=CCN(c1ccccc1)S(=O)(=O)c1ccc(Br)cc1CC [CBK038344] | 95.8%
Cc1ccc(C(=O)CN2CCC3(CC2)CC(=O)c2cc(Br)ccc2O3)cc1 [CBK162266] | 91.2%
O=C(Oc1ccc(-c2cnc3ccccc3n2)cc1)c1ccc(S(=O)(=O)N2CCCCC2)cc1 [CBK267812] | 93.7%
CN1CCc2c(sc3nc(SCc4cccc5ccccc45)n(-c4ccccc4)c(=O)c23)C1 [CBK264556] | 124%
CC(=O)c1ccccc1-c1ccc(C(=O)N2CCN(C)CC2)c(NCC2CC2)n1 [CBK076613] | 92.8%
CCCOc1ccc(N2C(=O)CC(N3CCC(C(=O)O)CC3)C2=O)cc1 (centres unmarked) [CBK287235] | 102%
COc1ccc(Cl)cc1NC(=O)COc1cccc2ccccc12 [CBK262995] | 94.9%
CC(=O)c1c(C)nn(C(C)CC(=O)O)c1C (centres unmarked) [CBK269101] | 103%
CCC(C(=O)Nc1cc(OC)c(OC)cc1C(=O)O)c1ccccc1 (centres unmarked) [CBK266794] | 106%
Cc1cc(C)nc(Nc2n[nH]c(-c3cccnc3)n2)n1 [CBK267120] | 98%
O=C(CC1C(=O)N(c2ccccc2)C(=S)N1NC(=O)c1ccccn1)Nc1ccc(Cl)cc1 (centres unmarked) [CBK266711] | 92.2%

— article PMC12040169 (PLOS Biology, 2025)
